Laboratory results: patent US9045488B2, “PAA nanoparticles for tumor treatment and imaging” (Photolitec, LLC, priority 2012, dated 2015)
Entries after “also recorded” stand apart in the source; their conditions may differ.

Columns and labels:
COLO-26 tumor = assay: In vivo fluorescence imaging, Maestro GNIR-Flex, mice with induced COLO-26 tumor; design: species or system Balb/c mice; conditions: 4-48 hours post i.v. 0.47 mmoles/kg; excitation 575-605 nm, emission 645 nm long pass
From the text: The images are color enhanced by computer assignment of color depth relative to fluorescent intensity. Exposure was 100 ms (fluorescence 0 and 8 ms 9 white light). […] The images are color enhanced by computer assignment of color depth relative to fluorescent intensity. […] The images are color enhanced by computer assignment of color depth relative to fluorescent intensity. […] The images are color enhanced by computer assignment of color depth relative to fluorescent intensity.

Colon 26 cancer cells = assay: MTT assay, percent survival of Colon 26 cancer cells with/without light treatment; format: cell-based; conditions: Colon 26 cells, 24 h incubation, no light or light 0.25-2 Joules; relative to the unconjugated compound
From the text: (§1) FIG. 3 is a graph showing percent survival of Colon 26 cancer cells relative to concentration in the form of MTT Assay of compound PS815 vs. PS815 conjugated to PAA nanoparticle vs. PS815 both conjugated and post-loaded on PAA nanoparticle without light treatment.
as §1, with “4” for “3”, “nanoparticles. Light treatment was done at 0.25 Joules following 24 h incubation in Colon 26 cells.” for “nanoparticle without light treatment.”
as §1, with “5” for “3”, “nanoparticles. Light treatment was done at 0.5 Joules following 24 h incubation in Colon 26 cells.” for “nanoparticle without light treatment.”
as §1, with “6” for “3”, “nanoparticles. Light treatment was done at one Joule following 24 h incubation in Colon 26 cells. […]” for “nanoparticle without light treatment.”

20-carboxyphenyl-2-[1-hexyloxyethyl]-2-devinyl pyropheophorbide-a methyl ester [PS812]
fluorescent image clarity and definition / fluorescence imaging (COLO-26 tumor): unexpectedly superior fluorescent imaging; also recorded: superiority of fluorescence imaging | toxicity to the tumor cells (MTT assay, percent survival), effect of conjugation with nanoparticles (Colon 26 cancer cells): unexpectedly increases toxicity to the cancer cells
